Source: patent US5834484A (Board of Supervisors of Louisiana State University and …, priority 1998, dated 1998)
Read-outs that look alike come from different tables or passages of the source.

Assays:
[1] = system: DAT; conditions: in words; cited from earlier work
[2] = biological target: T1, dopamine transporter (DAT), cocaine binding site (Rattus norvegicus, UniProt P23977); assay: Displacement of [^3 H]WIN 35,428 binding (rat striatal / caudate-putamen membranes); conditions: for binding affinity compared with cocaine and WIN 35,065-2: high affinity Ki values/components of cocaine and WIN 35,065-2; for Ki: mean ± SEM, three experiments in triplicate, unlabeled ligand, rat caudate-putamen
T1 construct: Rat striatal membranes are prepared from frozen tissue; from tissue; host or cells: rat caudate-putamen (striatal) membranes from frozen tissue
T1 sequence (P23977 whole entry): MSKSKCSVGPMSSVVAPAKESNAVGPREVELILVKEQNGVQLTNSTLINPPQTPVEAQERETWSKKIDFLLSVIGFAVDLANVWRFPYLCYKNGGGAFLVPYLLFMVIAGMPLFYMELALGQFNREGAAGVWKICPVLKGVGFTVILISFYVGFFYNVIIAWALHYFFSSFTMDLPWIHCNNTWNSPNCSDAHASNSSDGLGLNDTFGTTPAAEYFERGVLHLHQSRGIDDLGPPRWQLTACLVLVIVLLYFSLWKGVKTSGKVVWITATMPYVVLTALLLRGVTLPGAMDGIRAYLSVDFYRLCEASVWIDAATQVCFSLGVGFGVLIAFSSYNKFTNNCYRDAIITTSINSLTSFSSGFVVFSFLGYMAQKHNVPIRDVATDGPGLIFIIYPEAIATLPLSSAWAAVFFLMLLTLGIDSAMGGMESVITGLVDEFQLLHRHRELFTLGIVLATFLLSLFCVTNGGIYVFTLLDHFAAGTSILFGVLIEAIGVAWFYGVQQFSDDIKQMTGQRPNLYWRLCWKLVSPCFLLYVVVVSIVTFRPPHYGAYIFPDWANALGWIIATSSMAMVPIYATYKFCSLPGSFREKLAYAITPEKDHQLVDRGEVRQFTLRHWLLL

[3] = biological target: T1, dopamine transporter (DAT), cocaine binding site; conditions: two-site model, taken from Izenwasser et al. 1994, substantially identical conditions, cited from earlier work

In the case of COC(=O)[C@@H]1[C@@H](OC(=O)c2ccccc2)C[C@@H]2[C@@H](OC)C[C@H]1N2C (relative stereo) [Compound 3, 6β-methoxypseudococaine], the “binding affinity to DAT (literature)” value [1] is given as “relatively low”.
For COC(=O)[C@H]1[C@H]2[C@H](OC)C[C@@H](C[C@@H]1OC(=O)c1ccccc1)N2C (relative stereo) [Compound 4, 7β-methoxypseudococaine], the “binding affinity to DAT (literature)” value [1] is listed as “relatively low”.
With COC(=O)C[C@H]1[C@@H](Cc2ccccc2)C[C@@H]2CC[C@H]1N2C (relative stereo) [Compound 16a] the “binding affinity compared with cocaine and WIN 35,065-2” value ([2]; in words) was “not statistically different from the binding affinities of cocaine and WIN 35,065-2” and the Ki [2] was 91 ± 10 nM.
With COC(=O)C[C@@H]1[C@@H](Cc2ccccc2)C[C@@H]2CC[C@H]1N2C (relative stereo) [Compound 17a] the “potency relative to the binding affinities of cocaine, WIN 35,065-2 and 16a (unsubstituted 2α-isomer)” value ([2]; in words) was “significantly less potent”, the Ki [2] was 108 ± 14 nM and the “potency (binding affinity) relative to Compound 3, in words” value ([2]; vs prior art cocaine analog 3) was “nearly three orders of magnitude more potent”.
With COC(=O)C[C@@H]1[C@@H](Cc2ccccc2)C[C@@H]2[C@H](C)C[C@H]1N2C (relative stereo) [Compound 17b] the Ki [2] was 531 ± 12 nM.
In the case of CC[C@@H]1C[C@@H]2[C@H](CC(=O)OC)[C@@H](Cc3ccccc3)C[C@H]1N2C (relative stereo) [Compound 17c], the “potency (binding affinity) relative to Compound 3, fold” value ([2]; vs prior art cocaine analog 3) is reported as “about 100 times”.
For COC(=O)C[C@H]1[C@@H](Cc2ccccc2)C[C@@H]2[C@@H](C)C[C@H]1N2C (relative stereo) [Compound 18b], the “potency relative to corresponding 6α-methyl analog 16b” value ([2]; 18b vs 16b) was “about fourfold more potent”, the “binding affinity relative to unsubstituted analog 16a” value ([2]; in words) was “only a slightly lower binding affinity than that of the unsubstituted analog 16a” and the “binding affinity compared with cocaine and WIN 35,065-2” value ([2]; in words) was “within a factor of two of the high affinity binding components of cocaine and WIN 35,065-2”.
For COC(=O)C[C@@H]1[C@@H](Cc2ccccc2)C[C@@H]2[C@@H](C)C[C@H]1N2C (relative stereo) [Compound 19b], the “potency relative to corresponding 6α-isomer 17b” value ([2]; 19b vs 17b) was “about twice as potent”, the “binding affinity relative to unsubstituted derivative 17a” value ([2]; in words) was “comparable to that of the unsubstituted derivative 17a” and the “potency (binding affinity) relative to Compound 3, in words” value ([2]; vs prior art cocaine analog 3) was “nearly three orders of magnitude more potent”.
In the case of CCC[C@H]1C[C@@H]2[C@H](CC(=O)OC)[C@@H](Cc3ccccc3)C[C@H]1N2C (relative stereo) [Compound 19d], the “potency (binding affinity) relative to Compound 3, in words” value ([2]; vs prior art cocaine analog 3) is reported as “nearly three orders of magnitude more potent”.
For COC(=O)[C@H]1[C@@H](c2ccccc2)C[C@@H]2CC[C@H]1N2C [WIN 35,065-2], the Ki ([3]; read-out: Ki, high affinity, inhibition of [^3 H]WIN 35,428 binding, high affinity) is given as 33 ± 17 nM and the Ki ([3]; read-out: Ki, low affinity, inhibition of [^3 H]WIN 35,428 binding, low affinity) is given as 314 ± 222 nM.
